Measurements reported in US20030113263A1, “Methods and reagents for using mammalian melanocortin receptor antagonists to treat cachexia” (Oregon Health and Sciences University, a non-profit …, priority 2001, published 2003).

Assays:
[1] = test system: LPS-induced anorexia and fever in rats; details: central administration; cited from earlier work
[2] = molecular target: T1, human MC-4 melanocortin receptor (Homo sapiens, UniProt P32245); assay: cell-based or functional assay
Target sequence in this assay (P32245 other isoform, or with tags, fused parts or gaps): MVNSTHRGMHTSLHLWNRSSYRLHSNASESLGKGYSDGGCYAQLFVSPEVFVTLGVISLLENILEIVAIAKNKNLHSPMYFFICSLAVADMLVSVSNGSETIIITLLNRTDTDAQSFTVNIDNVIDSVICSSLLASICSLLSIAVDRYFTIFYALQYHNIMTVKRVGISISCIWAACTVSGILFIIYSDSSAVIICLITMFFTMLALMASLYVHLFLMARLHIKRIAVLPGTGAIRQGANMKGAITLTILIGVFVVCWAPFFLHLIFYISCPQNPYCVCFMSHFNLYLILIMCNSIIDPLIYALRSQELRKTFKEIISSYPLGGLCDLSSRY

[3] = molecular target: T1, human MC-4 melanocortin receptor; assay: intracellular cAMP accumulation (adenylate cyclase coupling) in transfected human 293 cells; assay type: cell-based; parameters: expressed in transfected cells; details: 293 cells expressing human MC-4 receptor, 45 min at 37° C.
Target sequence in this assay (P32245 whole entry): as the sequence (P32245 other isoform, or with tags, fused parts or gaps) above, with A42E, E65V, I103V, R109S, S169I, L215M, S318C, S319C counted along it
Experimental: Melanocortin receptor coupling to G-proteins in cells expressing the MC-4 melanocortin receptor was used analyze expression of the receptor in cell colonies transfected with the expression vectors described herein as follows. Cells (˜1×10^6) were plated in 6-well dishes, washed once with DMEM containing 1% bovine serum albumin (BSA) and 0.5mM IBMX (a phosphodiesterase inhibitor), then incubated for 45 minutes at 37° C. with varying concentrations of the melanotropic peptides. Following hormone treatment, the cells were washed twice with phosphate buffered saline and intracellular cAMP extracted by lysing the cells with 1 ml of 60% ethanol.

[4] = molecular target: T1, human MC-4 melanocortin receptor; assay: antagonism of agonist-induced cAMP elevation, Schild analysis; assay type: cell-based; parameters: expressed in transfected cells; details: agouti peptide approx. 60% pure; results not shown
Target sequence in this assay (P32245 whole entry): as the sequence (P32245 other isoform, or with tags, fused parts or gaps) above, with A42E, E65V, I103V, R109S, S169I, L215M, S318C, S319C counted along it

Ac-Nle^4-cyclo(Asp^5, D-Nal(2)^7, Lys^10) αMSH-(4-10)-amide [SHU9119]
effect on LPS-induced fever [1]: increased
effect on LPS-induced suppression of food intake [1]: reversal of LPS-induced anorexia

ACTH4-10 (from UniProt P01189) (peptide)
Ec50 (adenylate cyclase activity, intracellular cAMP accumulation in transfected 293 cells) [2]: > 100 nM

ACTH1-39 (from UniProt P01189 138-176) (peptide)
Ec50 (adenylate cyclase activity, intracellular cAMP accumulation in transfected 293 cells) [2]: 0.68 nM

CSCC[C@H](N)C(=O)N[C@@H](CCC(=O)O)C(=O)N[C@@H](Cc1c[nH]cn1)C(=O)N[C@@H](Cc1ccccc1)C(=O)N[C@@H](CCCNC(=N)N)C(=O)N[C@@H](Cc1c[nH]c2ccccc12)C(=O)NCC(=O)O [ACTH4-10]
EC50 [3]: > 100 nM

α-melanocyte stimulating hormone [α-MSH]
effect on LPS-induced fever [1]: reduced
effect on LPS-induced suppression of food intake [1]: significant potentiation of the suppressive effects of LPS on food intake

γ2-MSH (from UniProt P01189 77-88) (peptide)
Ec50 (adenylate cyclase activity, intracellular cAMP accumulation in transfected 293 cells) [2]: > 100 nM

B1: agouti: murine agouti peptide produced using a baculovirus system, approximately 60% pure (protein)
chain: HLALEETLGDDRSLRSNSSMNSLDFSSVSIVALNKKSKKISRKEAEKRKRSSKKKASMKKVARPPPPSPCVATRDSCKPPAPACCDPCASCQCRFFGSACTCRVLNPNC
competition of α-MSH activation of human MC-4 melanocortin receptors [4]: Specific competition
